According to the NIST ThermoML archive (doi:10.1016/j.tca.2010.08.002):
“And” between values parts separate entries of the source, which are not always exact repeats. Equal entries are not always repeated. ± gives the expanded uncertainty stated by the source.

Test: molar heat capacity at saturation pressure
Settings: Crystal, Vacuum adiabatic calorimetry

CCCCn1cc[n+](C)c1.O=S(=O)([O-])C(F)(F)F [1-butyl-3-methylimidazolium trifluoromethanesulfonate]
Settings | molar heat capacity
5.202 K | 1.664 ± 0.032 J/K/mol
5.437 K | 1.901 ± 0.034 J/K/mol
5.715 K | 2.221 ± 0.038 J/K/mol
5.999 K | 2.57 ± 0.041 J/K/mol
6.317 K | 2.999 ± 0.046 J/K/mol
6.671 K | 3.523 ± 0.05 J/K/mol
7.032 K | 4.097 ± 0.056 J/K/mol
7.395 K | 4.732 ± 0.061 J/K/mol
7.763 K | 5.393 ± 0.066 J/K/mol
8.135 K | 6.123 ± 0.072 J/K/mol
8.512 K | 6.893 ± 0.078 J/K/mol
8.894 K | 7.698 ± 0.084 J/K/mol
9.277 K | 8.558 ± 0.09 J/K/mol
9.664 K | 9.444 ± 0.096 J/K/mol
10.05 K | 10.36 ± 0.1 J/K/mol
10.55 K | 11.59 ± 0.11 J/K/mol
11.16 K | 13.11 ± 0.12 J/K/mol
11.77 K | 14.7 ± 0.13 J/K/mol
12.38 K | 16.35 ± 0.14 J/K/mol
13 K | 18.04 ± 0.15 J/K/mol
13.62 K | 19.77 ± 0.16 J/K/mol
14.25 K | 21.58 ± 0.17 J/K/mol
14.88 K | 23.41 ± 0.18 J/K/mol
15.62 K | 25.59 ± 0.19 J/K/mol
16.48 K | 28.21 ± 0.2 J/K/mol
17.34 K | 30.75 ± 0.21 J/K/mol
18.21 K | 33.27 ± 0.22 J/K/mol
19.07 K | 35.79 ± 0.23 J/K/mol
19.94 K | 38.35 ± 0.23 J/K/mol
21.15 K | 41.92 ± 0.24 J/K/mol
22.72 K | 46.46 ± 0.25 J/K/mol
24.29 K | 51.02 ± 0.25 J/K/mol
25.87 K | 55.46 ± 0.26 J/K/mol
27.45 K | 59.71 ± 0.25 J/K/mol
28.86 K | 63.39 ± 0.25 J/K/mol
30.34 K | 67.25 ± 0.18 J/K/mol
32.09 K | 71.61 ± 0.19 J/K/mol
34 K | 76.13 ± 0.2 J/K/mol
35.92 K | 80.4 ± 0.21 J/K/mol
37.84 K | 84.48 ± 0.21 J/K/mol
39.76 K | 88.4 ± 0.22 J/K/mol
41.78 K | 92.42 ± 0.23 J/K/mol
43.9 K | 96.53 ± 0.24 J/K/mol
46.01 K | 100.5 ± 0.2 J/K/mol
48.13 K | 104.3 ± 0.3 J/K/mol
50.25 K | 108 ± 0.3 J/K/mol
52.38 K | 111.5 ± 0.3 J/K/mol
54.5 K | 114.9 ± 0.3 J/K/mol
56.63 K | 118.1 ± 0.3 J/K/mol
58.75 K | 121.2 ± 0.3 J/K/mol
60.89 K | 124.2 ± 0.3 J/K/mol
63.03 K | 127.2 ± 0.3 J/K/mol
65.17 K | 130.1 ± 0.3 J/K/mol
67.3 K | 133 ± 0.3 J/K/mol
69.44 K | 135.8 ± 0.3 J/K/mol
71.69 K | 138.7 ± 0.3 J/K/mol
74.03 K | 141.6 ± 0.3 J/K/mol
76.39 K | 144.5 ± 0.3 J/K/mol
78.69 K | 147.6 ± 0.3 J/K/mol and 147.7 ± 0.3 J/K/mol
78.74 K | 147.4 ± 0.3 J/K/mol
80.59 K | 149.7 ± 0.3 J/K/mol
80.61 K | 149.7 ± 0.3 J/K/mol
81.1 K | 150.1 ± 0.3 J/K/mol
82.36 K | 151.6 ± 0.3 J/K/mol
82.4 K | 151.6 ± 0.3 J/K/mol
83.47 K | 152.9 ± 0.4 J/K/mol
84.13 K | 153.6 ± 0.4 J/K/mol
84.19 K | 153.7 ± 0.4 J/K/mol
85.92 K | 155.7 ± 0.4 J/K/mol
86 K | 155.7 ± 0.4 J/K/mol
87.73 K | 157.6 ± 0.4 J/K/mol
87.81 K | 157.6 ± 0.4 J/K/mol
89.54 K | 159.5 ± 0.4 J/K/mol
89.64 K | 159.6 ± 0.4 J/K/mol
91.35 K | 161.5 ± 0.4 J/K/mol
91.48 K | 161.6 ± 0.4 J/K/mol
93.18 K | 163.4 ± 0.4 J/K/mol
93.33 K | 163.6 ± 0.4 J/K/mol
95.02 K | 165.5 ± 0.4 J/K/mol
95.19 K | 165.6 ± 0.4 J/K/mol
96.87 K | 167.3 ± 0.4 J/K/mol
97.05 K | 167.5 ± 0.4 J/K/mol
98.72 K | 169.2 ± 0.4 J/K/mol
98.92 K | 169.4 ± 0.4 J/K/mol
100.59 K | 171.1 ± 0.4 J/K/mol
100.8 K | 171.4 ± 0.4 J/K/mol
102.64 K | 173.1 ± 0.4 J/K/mol
102.7 K | 173.3 ± 0.4 J/K/mol
104.6 K | 175.1 ± 0.4 J/K/mol
104.89 K | 175.5 ± 0.4 J/K/mol
106.5 K | 177 ± 0.4 J/K/mol
107.15 K | 177.7 ± 0.4 J/K/mol
108.41 K | 178.9 ± 0.4 J/K/mol
109.42 K | 179.9 ± 0.4 J/K/mol
110.33 K | 180.8 ± 0.4 J/K/mol
111.71 K | 182.1 ± 0.4 J/K/mol
112.25 K | 182.6 ± 0.4 J/K/mol
114.01 K | 184.4 ± 0.4 J/K/mol
114.17 K | 184.5 ± 0.4 J/K/mol
116.1 K | 186.5 ± 0.4 J/K/mol
116.31 K | 186.8 ± 0.4 J/K/mol
118.04 K | 189.9 ± 0.4 J/K/mol
118.61 K | 190.7 ± 0.4 J/K/mol
119.97 K | 192.6 ± 0.4 J/K/mol
120.92 K | 192.7 ± 0.4 J/K/mol
121.91 K | 193.4 ± 0.4 J/K/mol
123.24 K | 193.9 ± 0.4 J/K/mol
123.85 K | 194.3 ± 0.4 J/K/mol
125.56 K | 195.3 ± 0.4 J/K/mol
125.8 K | 195.5 ± 0.4 J/K/mol
127.76 K | 196.9 ± 0.4 J/K/mol
127.9 K | 197 ± 0.4 J/K/mol
129.72 K | 198.4 ± 0.4 J/K/mol
130.24 K | 198.8 ± 0.4 J/K/mol
131.68 K | 200 ± 0.4 J/K/mol
132.58 K | 200.7 ± 0.4 J/K/mol
133.65 K | 201.6 ± 0.4 J/K/mol
134.93 K | 202.7 ± 0.4 J/K/mol
135.63 K | 203.2 ± 0.4 J/K/mol
137.28 K | 204.7 ± 0.4 J/K/mol
137.6 K | 204.9 ± 0.4 J/K/mol
139.58 K | 206.5 ± 0.4 J/K/mol
139.64 K | 206.6 ± 0.4 J/K/mol
141.56 K | 208.3 ± 0.4 J/K/mol
142 K | 208.7 ± 0.4 J/K/mol
143.55 K | 210.1 ± 0.4 J/K/mol
144.36 K | 210.9 ± 0.4 J/K/mol
145.53 K | 211.9 ± 0.4 J/K/mol
146.73 K | 213 ± 0.4 J/K/mol
147.51 K | 213.7 ± 0.4 J/K/mol
149.09 K | 215.2 ± 0.4 J/K/mol
149.5 K | 215.5 ± 0.4 J/K/mol
151.45 K | 217.4 ± 0.4 J/K/mol
151.48 K | 217.4 ± 0.4 J/K/mol
153.46 K | 219.3 ± 0.4 J/K/mol
153.82 K | 219.6 ± 0.4 J/K/mol
155.44 K | 221.2 ± 0.4 J/K/mol
156.18 K | 221.9 ± 0.4 J/K/mol
157.42 K | 223.1 ± 0.4 J/K/mol
158.55 K | 224.2 ± 0.4 J/K/mol
159.41 K | 225.1 ± 0.4 J/K/mol
160.91 K | 226.5 ± 0.4 J/K/mol
161.39 K | 226.9 ± 0.4 J/K/mol
163.28 K | 228.8 ± 0.4 J/K/mol
163.37 K | 228.9 ± 0.4 J/K/mol
165.35 K | 230.9 ± 0.4 J/K/mol
165.64 K | 231.1 ± 0.4 J/K/mol
167.32 K | 232.8 ± 0.4 J/K/mol
168 K | 233.4 ± 0.4 J/K/mol
169.3 K | 234.8 ± 0.4 J/K/mol
